From patent US20240199587A1, “HETEROCYCLIC COMPOUNDS” (Hoffmann-La Roche Inc., priority 2021, published 2024) come the findings set out here.

pIC50: −log10 of the molar value.

The experiment has as its target T1, MAGL (Homo sapiens, UniProt Q99685).
T1 sequence (Q99685 1-303): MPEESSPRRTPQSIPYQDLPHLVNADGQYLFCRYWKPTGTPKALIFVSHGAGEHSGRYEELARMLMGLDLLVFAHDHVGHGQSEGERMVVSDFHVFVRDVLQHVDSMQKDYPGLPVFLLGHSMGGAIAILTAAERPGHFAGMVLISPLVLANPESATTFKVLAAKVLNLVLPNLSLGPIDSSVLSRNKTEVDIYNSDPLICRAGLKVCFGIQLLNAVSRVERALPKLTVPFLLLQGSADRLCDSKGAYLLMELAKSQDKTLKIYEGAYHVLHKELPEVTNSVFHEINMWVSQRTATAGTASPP
The experiment in a line: 2-AG assay (MAGL inhibitory activity, hydrolysis of 2-arachidonoylglycerol to arachidonic acid followed by mass spectrometry). The class given is biochemical. The note with it: 8 μM 2-arachidonoylglycerol, 15 min pre-incubation, 30 min incubation at RT, RapidFire MS readout. A digest of the protocol:
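Arachidonic acid released from 8 μM 2-arachidonoylglycerol was quantified by online SPE triple-quadrupole MS (negative ESI, 303.1→259.1), normalised to d8-arachidonic acid internal standard. Reaction ran 30 min at RT after 15 min RT compound pre-incubation with […] MAGL in TRIS/EDTA/Tween-20 buffer, 2.5% DMSO.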
A word on the pIC50: it is the negative decadic logarithm of the IC50, by convention in mol/L. The compound `Cc1cc(O[C@H]2C[C@@H]3CN(C(=O)N4CC5(CC(n6cnc(C7CC7)n6)C5)C4)C[C@@H]3C2)ccc1F` [Example 125, [6-(3-cyclopropyl-1,2,4-triazol-1-yl)-2-azaspiro[3.3]heptan-2-yl]-[rac-(3aS,6aR)-5-(4-fluoro-3-methyl-phenoxy)-3,3a,4,5,6,6a-hexahydro-1H-cyclopenta[c]pyrrol-2-yl]methanone] had a pIC50 of 8.34.

For `N#Cc1cc(O[C@H]2C[C@@H]3CN(C(=O)N4CC5(CC(n6cnc(C7CC7)n6)C5)C4)C[C@@H]3C2)ccc1F` [Example 127, 2-fluoro-5-[[rac-(3aS,6aR)-2-[6-(3-cyclopropyl-1,2,4-triazol-1-yl)-2-azaspiro[3.3]heptane-2-carbonyl]-3,3a,4,5,6,6a-hexahydro-1H-cyclopenta[c]pyrrol-5-yl]oxy]benzonitrile], the pIC50 is 7.84.

In turn, `Cc1cc(F)c(F)cc1O[C@H]1C[C@@H]2CN(C(=O)N3CC4(CC(n5cnc(C6CC6)n5)C4)C3)C[C@@H]2C1` [Example 128, [6-(3-cyclopropyl-1,2,4-triazol-1-yl)-2-azaspiro[3.3]heptan-2-yl]-[rac-(3aS,6aR)-5-(4,5-difluoro-2-methyl-phenoxy)-3,3a,4,5,6,6a-hexahydro-1H-cyclopenta[c]pyrrol-2-yl]methanone] had a pIC50 of 8.74. Compared with the last compound, the pIC50 is 0.90 log units higher.

`N#Cc1cc(F)ccc1O[C@H]1C[C@@H]2CN(C(=O)N3CC4(CC(n5cnc(C6CC6)n5)C4)C3)C[C@@H]2C1` [Example 129, 5-fluoro-2-[[rac-(3aS,6aR)-2-[6-(3-cyclopropyl-1,2,4-triazol-1-yl)-2-azaspiro[3.3]heptane-2-carbonyl]-3,3a,4,5,6,6a-hexahydro-1H-cyclopenta[c]pyrrol-5-yl]oxy]benzonitrile] showed a pIC50 of 7.14.

In the case of `CS(=O)(=O)c1cc(O[C@H]2C[C@@H]3CN(C(=O)N4CC5(CC(n6cnc(C7CC7)n6)C5)C4)C[C@@H]3C2)ccc1F` [Example 130, [6-(3-cyclopropyl-1,2,4-triazol-1-yl)-2-azaspiro[3.3]heptan-2-yl]-[rac-(3aS,6aR)-5-(4-fluoro-3-methylsulfonyl-phenoxy)-3,3a,4,5,6,6a-hexahydro-1H-cyclopenta[c]pyrrol-2-yl]methanone], the pIC50 is 7.32.

`COc1cc(O[C@H]2C[C@@H]3CN(C(=O)N4CC5(CC(n6cnc(C7CC7)n6)C5)C4)C[C@@H]3C2)ccc1F` [Example 131, [6-(3-cyclopropyl-1,2,4-triazol-1-yl)-2-azaspiro[3.3]heptan-2-yl]-[rac-(3aS,6aR)-5-(4-fluoro-3-methoxy-phenoxy)-3,3a,4,5,6,6a-hexahydro-1H-cyclopenta[c]pyrrol-2-yl]methanone] gave a pIC50 of 8.23. Against the preceding compound, the pIC50 is 0.91 log units higher.

`O=C(N1C[C@H]2C[C@H](Oc3cc(C(F)(F)F)c(F)cc3F)C[C@H]2C1)N1CC2(CC(n3cnc(C4CC4)n3)C2)C1` [Example 132, [6-(3-cyclopropyl-1,2,4-triazol-1-yl)-2-azaspiro[3.3]heptan-2-yl]-[rac-(3aS,6aR)-5-[2,4-difluoro-5-(trifluoromethyl)phenoxy]-3,3a,4,5,6,6a-hexahydro-1H-cyclopenta[c]pyrrol-2-yl]methanone]: the pIC50 is 8.77.

The compound `O=C(N1C[C@H]2C[C@H](Oc3ccc(F)c(OC(F)(F)F)c3)C[C@H]2C1)N1CC2(CC(n3cnc(C4CC4)n3)C2)C1` [Example 133, [6-(3-cyclopropyl-1,2,4-triazol-1-yl)-2-azaspiro[3.3]heptan-2-yl]-[rac-(3aS,6aR)-5-[4-fluoro-3-(trifluoromethoxy)phenoxy]-3,3a,4,5,6,6a-hexahydro-1H-cyclopenta[c]pyrrol-2-yl]methanone] had a pIC50 of 8.89.

Regarding `O=C(N1C[C@H]2C[C@H](Oc3ccc(OC(F)(F)F)cc3)C[C@H]2C1)N1CC2(CC(n3cnc(C4CC4)n3)C2)C1` [Example 134, [6-(3-cyclopropyl-1,2,4-triazol-1-yl)-2-azaspiro[3.3]heptan-2-yl]-[rac-(3aS,6aR)-5-[4-(trifluoromethoxy)phenoxy]-3,3a,4,5,6,6a-hexahydro-1H-cyclopenta[c]pyrrol-2-yl]methanone], the pIC50 was 8.37.

For `O=C(N1C[C@H]2C[C@H](Oc3ccc(OC(F)(F)F)c(F)c3)C[C@H]2C1)N1CC2(CC(n3cnc(C4CC4)n3)C2)C1` [Example 135, [6-(3-cyclopropyl-1,2,4-triazol-1-yl)-2-azaspiro[3.3]heptan-2-yl]-[rac-(3aS,6aR)-5-[3-fluoro-4-(trifluoromethoxy)phenoxy]-3,3a,4,5,6,6a-hexahydro-1H-cyclopenta[c]pyrrol-2-yl]methanone], the negative logarithm of the IC50 (pIC50) is 8.51.

`O=C(N1CC(OCc2cncc(C(F)(F)F)c2)C1)N1CC2(CC(n3cnc(C4CC4)n3)C2)C1` [Example 136, [6-(3-cyclopropyl-1,2,4-triazol-1-yl)-2-azaspiro[3.3]heptan-2-yl]-[3-[[5-(trifluoromethyl)-3-pyridyl]methoxy]azetidin-1-yl]methanone] had a pIC50 of 7.85. This pIC50 is 0.66 log units lower than that of the compound before.

In turn, `O=C(N1CC2(CC(OCC3(C(F)(F)F)CC3)C2)C1)N1CC2(CC(n3cnc(C4CC4)n3)C2)C1` [Example 137, [6-(3-cyclopropyl-1,2,4-triazol-1-yl)-2-azaspiro[3.3]heptan-2-yl]-[6-[[1-(trifluoromethyl)cyclo-propyl]methoxy]-2-azaspiro[3.3]heptan-2-yl]methanone] gave a pIC50 of 8.35.

In the case of `CC1C(OCc2ccc(C(F)(F)F)cc2)CN1C(=O)N1CC2(CC(n3cnc(C4CC4)n3)C2)C1` (stereo not drawn) [Example 138, [6-(3-cyclopropyl-1,2,4-triazol-1-yl)-2-azaspiro[3.3]heptan-2-yl]-[2-methyl-3-[[4-(trifluoromethyl)phenyl]methoxy]azetidin-1-yl]methanone], the pIC50 was 9.10.

`O=C(N1CC(C#Cc2ccccc2C(F)F)C1)N1CC2(CC(n3cnc(C4CC4)c3)C2)C1` [Example 139, [6-(4-cyclopropylimidazol-1-yl)-2-azaspiro[3.3]heptan-2-yl]−[3-[2-[2-(difluoromethyl)phenyl]ethynyl]azetidin-1-yl]methanone] showed a pIC50 of 7.94.

Consider `O=C(N1CC(c2noc(C3(C(F)(F)F)CC3)n2)C1)N1CC2(CC(n3cnc(C4CC4)n3)C2)C1` [Example 140, [6-(3-cyclopropyl-1,2,4-triazol-1-yl)-2-azaspiro[3.3]heptan-2-yl]-[3-[5-[1-(trifluoromethyl)cyclo-propyl]-1,2,4-oxadiazol-3-yl]azetidin-1-yl]methanone], for which the pIC50 was 7.21. This pIC50 lies 0.73 log units lower than the previous one.

In turn, `O=C(N1CC(c2noc(C3(C(F)(F)F)CC3)n2)C1)N1CC2(CC(n3cnc(C4CC4)c3)C2)C1` [Example 141] gave a pIC50 of 6.48. Compared with the last compound, the pIC50 is 0.73 log units lower.

For `Cc1cc(C(=O)N2CC3(CC(n4cnc(C5CC5)c4)C3)C2)cnc1OCC1(C)CC1` [Example 142, [6-(4-cyclopropylimidazol-1-yl)-2-azaspiro[3.3]heptan-2-yl]−[5-methyl-6-[(1-methylcyclopropyl)methoxy]-3-pyridyl]methanone], the pIC50 was 7.50.

`Cc1cc(C(=O)N2CC3(CC(n4cnc(C5CC5)n4)C3)C2)cnc1OCC1(C)CC1` [Example 143, [6-(3-cyclopropyl-1,2,4-triazol-1-yl)-2-azaspiro[3.3]heptan-2-yl]-[5-methyl-6-[(1-methylcyclopropyl)methoxy]-3-pyridyl]methanone] showed a pIC50 of 7.27.

As for `O=C(N1CC(n2cc(OCC(F)(F)F)cn2)C1)N1CC2(CC(n3cnc(C4CC4)c3)C2)C1` [Example 144, [6-(4-cyclopropylimidazol-1-yl)-2-azaspiro[3.3]heptan-2-yl]-[3-[4-(2,2,2-trifluoroethoxy)pyrazol-1-yl]azetidin-1-yl]methanone], the pIC50 is 6.22.

The compound `O=C(N1CC(c2nnc(C3(C(F)(F)F)CC3)o2)C1)N1CC2(CC(n3cnc(C4CC4)n3)C2)C1` [Example 145, [6-(3-cyclopropyl-1,2,4-triazol-1-yl)-2-azaspiro[3.3]heptan-2-yl]-[3-[5-[1-(trifluoromethyl)cyclo-propyl]-1,3,4-oxadiazol-2-yl]azetidin-1-yl]methanone] showed a pIC50 of 6.27.

`Cc1cnn(C2CC3(C2)CN(C(=O)c2ccc(-c4noc(C(C)(C)C)n4)cc2)C3)c1` [Example 146, [4-(5-tert-butyl-1,2,4-oxadiazol-3-yl)phenyl]−[6-(4-methylpyrazol-1-yl)-2-azaspiro[3.3]heptan-2-yl]methanone] had a pIC50 of 6.40. The pIC50 values of the last two compounds are within 0.2 log units of each other.

Compound `Cc1cnn(C2CC3(C2)CN(C(=O)c2cnc(OCC4(C(F)(F)F)CC4)c(C)c2)C3)c1` [Example 147, [6-(4-methylpyrazol-1-yl)-2-azaspiro[3.3]heptan-2-yl]-[5-methyl-6-[[1-(trifluoromethyl)cyclopropyl]methoxy]-3-pyridyl]methanone] showed a pIC50 of 6.47.

For the compound `Cc1ccn(C2CC3(C2)CN(C(=O)c2ccc(-c4noc(C(C)(C)C)n4)cc2)C3)n1` [Example 148, [4-(5-tert-butyl-1,2,4-oxadiazol-3-yl)phenyl]-[6-(3-methylpyrazol-1-yl)-2-azaspiro[3.3]heptan-2-yl]methanone], the negative logarithm of the IC50 (pIC50) was 5.85.

Regarding `O=C(N1CC2(CC(n3cnc(C4CC4)n3)C2)C1)N1CCC(OCC2(C(F)(F)F)CC2)C2(CC2)C1` (stereo not drawn) [Example 149, [6-(3-cyclopropyl-1,2,4-triazol-1-yl)-2-azaspiro13.31heptan-2-yl]−[8-[[1-(trifluoromethyl)cyclopropyl]methoxy]-5-azaspiro[2.5]octan-5-yl]methanone], the pIC50 is 6.36. Against the preceding compound, the pIC50 is 0.51 log units higher.
